Among the data in PubChem BioAssay (NCI) are TGI values, retold here.

The structures appear in SMILES notation.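 Values below derive from 48-hour exposures of cells grown in 96-well plates, with endpoints linearly interpolated between the two concentrations bracketing the appropriate inhibition level. At the TGI there is no net growth.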

Among the test systems are OVCAR-5 ovarian; SF-539 CNS; NCI-H226 lung; SW-620 colon; DU-145 prostate; SN12C renal; CCRF-CEM leukemia; NCI-H23 lung; TK-10 renal; SK-MEL-28 melanoma; A549 NSCLC; MDA-N; UACC-257 melanoma; SF-295 CNS; SR leukemia; HCT-116 colon.
What all share (experiment): NCI tumour cell line growth inhibition, 48 h

On to `C/C(=N/NC(=S)Nc1ccccc1Cl)c1cccc(/C(C)=N\NC(=S)Nc2ccccc2Cl)n1`, for which the TGI in the experiment on OVCAR-5 ovarian, in the experiment on SF-539 CNS, in the experiment on NCI-H226 lung, in the experiment on SW-620 colon, in the experiment on DU-145 prostate and with SN12C renal was more than 100 µM in each case. In addition, the TGI in the experiment on CCRF-CEM leukemia, in the experiment with NCI-H23 lung, with TK-10 renal, in the experiment on SK-MEL-28 melanoma, with A549 NSCLC and in the experiment on MDA-N was more than 100 µM throughout. Further, the TGI in the experiment with UACC-257 melanoma is more than 100 µM; in the experiment on SF-295 CNS, more than 100 µM; with SR leukemia, more than 100 µM; in the experiment with HCT-116 colon, 49.4 µM.

With `[Se]=P(c1ccccc1)(c1ccccc1)c1ccc(C(c2ccccc2)=P(c2ccccc2)(c2ccccc2)c2ccccc2)cc1`, the TGI in the experiment with OVCAR-5 ovarian turned out to be 18.7 µM; in the experiment on SF-539 CNS it was 17.8 µM; with NCI-H226 lung, 11.5 µM; with SW-620 colon, 19.2 µM; in the experiment on DU-145 prostate it was 14.5 µM; with SN12C renal, 10.2 µM. Besides, the TGI in the experiment on CCRF-CEM leukemia came to 8.37 µM; in the experiment on NCI-H23 lung, 13.9 µM; in the experiment on TK-10 renal it was 6.88 µM; in the experiment with SK-MEL-28 melanoma it was 20.2 µM; in the experiment on A549 NSCLC it was 13 µM; in the experiment on MDA-N it was 4.57 µM. Besides, the TGI is 5.59 µM with UACC-257 melanoma, 10.2 µM with SF-295 CNS, more than 33.3 µM in the experiment with SR leukemia and 4.7 µM in the experiment with HCT-116 colon.

As to `Cc1ccc(OCC2OC(n3cnc4nc(Cl)nc(Cl)c43)CC2Oc2ccc(C)cc2)cc1` (stereo unspecified), the TGI amounted to 32.1 µM with OVCAR-5 ovarian; 13.9 µM with SF-539 CNS; 36.3 µM in the experiment on NCI-H226 lung; 28 µM in the experiment with SW-620 colon; 27.2 µM in the experiment with DU-145 prostate; 20.5 µM in the experiment with SN12C renal. Moreover, the TGI in the experiment with CCRF-CEM leukemia was more than 23.1 µM; with NCI-H23 lung it was 24.5 µM; in the experiment on TK-10 renal, 28.7 µM; with SK-MEL-28 melanoma, 14.1 µM; in the experiment on A549 NSCLC, more than 63.3 µM; in the experiment on MDA-N, 13.7 µM. For the same molecule, the TGI with UACC-257 melanoma was 29.6 µM; in the experiment on SF-295 CNS it was 30.6 µM; with SR leukemia, 5.65 µM; with HCT-116 colon, 17.9 µM.

For `O=c1[nH]nc(-c2ccccc2)n1/N=C/c1ccncc1`, the TGI in the experiment with OVCAR-5 ovarian, in the experiment with SF-539 CNS, in the experiment on NCI-H226 lung, in the experiment with SW-620 colon, with DU-145 prostate and with SN12C renal was more than 100 µM each time. The TGI with CCRF-CEM leukemia, in the experiment on NCI-H23 lung, in the experiment on TK-10 renal, in the experiment on SK-MEL-28 melanoma, in the experiment on A549 NSCLC and with MDA-N was more than 100 µM in each case. The TGI in the experiment with UACC-257 melanoma, with SF-295 CNS, with SR leukemia and in the experiment with HCT-116 colon was more than 100 µM in each case.

On to `COc1ccc(O[C@H](COCc2ccccc2)C[C@@H]2COC(C)(C)O2)cc1`, for which the TGI in the experiment with OVCAR-5 ovarian, in the experiment with SF-539 CNS, in the experiment on NCI-H226 lung, with SW-620 colon, in the experiment with DU-145 prostate and in the experiment on SN12C renal was more than 100 µM throughout. The TGI with CCRF-CEM leukemia, with NCI-H23 lung, in the experiment with TK-10 renal, in the experiment with SK-MEL-28 melanoma, in the experiment with A549 NSCLC and in the experiment on MDA-N was more than 100 µM throughout. The TGI with UACC-257 melanoma, with SF-295 CNS, with SR leukemia and in the experiment with HCT-116 colon was more than 100 µM throughout.

As for `O=C1C(NCCc2ccc(O)c(O)c2)=CC(=O)c2ncccc21`, the TGI with OVCAR-5 ovarian worked out at 40.2 µM; in the experiment with SF-539 CNS, 30.1 µM; with NCI-H226 lung, 30.5 µM; in the experiment with SW-620 colon it was 32.3 µM; with DU-145 prostate it was 24 µM; in the experiment with SN12C renal, 34.4 µM. In addition, the TGI in the experiment with CCRF-CEM leukemia is 60.4 µM; with NCI-H23 lung it was more than 78.3 µM; in the experiment on TK-10 renal, more than 71.6 µM; in the experiment on SK-MEL-28 melanoma, 28.8 µM; with A549 NSCLC it was 35.7 µM; in the experiment on MDA-N, 4.74 µM. Further, the TGI in the experiment on UACC-257 melanoma is 24.8 µM; in the experiment with SF-295 CNS it was 28.5 µM; with SR leukemia it was more than 100 µM; in the experiment on HCT-116 colon, 29 µM.

Regarding `COc1cccc(-c2ccc3c4c2O[C@H]2c5[nH]c6ccccc6c5C[C@@]5(O)[C@@H](C3)N(CC3CC3)CC[C@]425)c1`, the TGI with OVCAR-5 ovarian worked out at 20.8 µM; in the experiment with SF-539 CNS, 3.51 µM; in the experiment on NCI-H226 lung it was 30.2 µM; in the experiment on SW-620 colon, 4.77 µM; in the experiment on DU-145 prostate, 6.91 µM; in the experiment on SN12C renal it was 3.13 µM. In addition, the TGI in the experiment on CCRF-CEM leukemia was more than 100 µM; with NCI-H23 lung it was 5.27 µM; in the experiment on TK-10 renal, 3.48 µM; with SK-MEL-28 melanoma it was more than 23.1 µM; in the experiment on A549 NSCLC it was 3.36 µM; with MDA-N it was 3.28 µM. For the same molecule, the TGI with UACC-257 melanoma amounted to 3.2 µM; with SF-295 CNS, 3.08 µM; in the experiment with SR leukemia, 5.51 µM; with HCT-116 colon, 2.99 µM.

On to `CCCCCC(=O)N[C@@H](c1ccccc1)C(O)C(=O)OC1C[C@@]2(O)C(OC(=O)c3ccccc3)C3[C@](C)(C(=O)[C@H](O)C(=C1C)C2(C)C)C(OC1OCC(O)C(O)C1O)C[C@H]1OC[C@@]31OC(C)=O` (stereo partly specified), for which the TGI in the experiment on OVCAR-5 ovarian is more than 100 µM; with SF-539 CNS, 5.68 µM; with NCI-H226 lung it was more than 100 µM; in the experiment on SW-620 colon, more than 100 µM; in the experiment on DU-145 prostate, 13.4 µM; in the experiment with SN12C renal, more than 100 µM. Also, the TGI in the experiment with CCRF-CEM leukemia was more than 100 µM; in the experiment with NCI-H23 lung, more than 100 µM; in the experiment on TK-10 renal it was more than 100 µM; with SK-MEL-28 melanoma, more than 100 µM; in the experiment with A549 NSCLC, more than 100 µM; in the experiment with MDA-N, 1.03 µM. For the same molecule, the TGI was more than 100 µM in the experiment with UACC-257 melanoma, more than 93.7 µM with SF-295 CNS, 40.2 µM with SR leukemia and more than 100 µM with HCT-116 colon.

As to `Clc1ccc(Cc2nc3ccc(CCN4CCN(c5ccccc5)CC4)cc3[nH]2)cc1`, the TGI with OVCAR-5 ovarian is 66.4 µM; with SF-539 CNS, 33.5 µM; in the experiment on NCI-H226 lung, 51.3 µM; in the experiment on SW-620 colon, more than 100 µM; in the experiment with DU-145 prostate, 44 µM; in the experiment with SN12C renal it was 33.8 µM. Also, the TGI in the experiment with CCRF-CEM leukemia is more than 100 µM; in the experiment with NCI-H23 lung it was 32.5 µM; in the experiment with TK-10 renal, 27 µM; in the experiment on SK-MEL-28 melanoma it was 54.3 µM; with A549 NSCLC, 33 µM; with MDA-N it was 30.6 µM. Further, the TGI in the experiment with UACC-257 melanoma came out at 18.8 µM; with SF-295 CNS it was 26.5 µM; with SR leukemia, 36 µM; in the experiment with HCT-116 colon, 24.6 µM.

Take `O=C1/C(=C\c2cccc(Oc3ccccc3)c2)S(=O)(=O)C(c2ccccc2)N1c1ccccc1Cl` (stereo unspecified): the TGI in the experiment on OVCAR-5 ovarian was more than 100 µM; in the experiment with SF-539 CNS it was 34.3 µM; with NCI-H226 lung, more than 100 µM; with SW-620 colon, more than 100 µM; in the experiment with DU-145 prostate, more than 100 µM; with SN12C renal, 72 µM. Also, the TGI was 51.2 µM with CCRF-CEM leukemia; more than 100 µM with NCI-H23 lung; more than 100 µM in the experiment on TK-10 renal; more than 100 µM in the experiment with SK-MEL-28 melanoma; more than 100 µM in the experiment with A549 NSCLC; 50.2 µM with MDA-N. In addition, the TGI with UACC-257 melanoma is more than 100 µM; in the experiment on SF-295 CNS, more than 100 µM; with SR leukemia it was 62.4 µM; with HCT-116 colon, 39.2 µM.

As for `Cc1ccc(N=Nc2c(O)ccc3cc(S(=O)(=O)O)ccc23)c(C)c1`, the TGI in the experiment on OVCAR-5 ovarian, with SF-539 CNS, in the experiment with NCI-H226 lung, in the experiment with SW-620 colon, in the experiment on DU-145 prostate and in the experiment with SN12C renal was more than 100 µM each time. For the same molecule, the TGI in the experiment on CCRF-CEM leukemia, with NCI-H23 lung, in the experiment with TK-10 renal, with SK-MEL-28 melanoma, with A549 NSCLC and with MDA-N was more than 100 µM throughout. The TGI with UACC-257 melanoma, in the experiment on SF-295 CNS, in the experiment with SR leukemia and in the experiment with HCT-116 colon was more than 100 µM throughout.

Regarding `O=C(CN1CCN(Cc2ccccc2)CC1)N1CCCn2c1nc1ccccc1c2=O`, the TGI in the experiment on OVCAR-5 ovarian, with SF-539 CNS, in the experiment on NCI-H226 lung, in the experiment with SW-620 colon, in the experiment with DU-145 prostate and in the experiment on SN12C renal was more than 100 µM throughout. Moreover, the TGI in the experiment on CCRF-CEM leukemia, in the experiment with NCI-H23 lung, in the experiment on TK-10 renal, in the experiment with A549 NSCLC, in the experiment with MDA-N and in the experiment on UACC-257 melanoma was more than 100 µM in each case. Besides, the TGI in the experiment on SF-295 CNS, with SR leukemia and in the experiment on HCT-116 colon was more than 100 µM throughout.

Take `NC(=Nc1ccc(O)cc1)S(=O)(=O)O`: the TGI in the experiment with OVCAR-5 ovarian, with SF-539 CNS, with NCI-H226 lung, in the experiment with SW-620 colon, in the experiment on DU-145 prostate and with SN12C renal was more than 100 µM each time. Besides, the TGI with CCRF-CEM leukemia, in the experiment with NCI-H23 lung, in the experiment on TK-10 renal, in the experiment on A549 NSCLC, in the experiment on MDA-N and in the experiment with UACC-257 melanoma was more than 100 µM each time. For the same molecule, the TGI in the experiment with SF-295 CNS, in the experiment with SR leukemia and in the experiment on HCT-116 colon was more than 100 µM each time.
